Measured values reported in patent publication US20150153326A1, “QUANTITATIVE ANALYSIS OF CONTACT-DEPENDENT CELL-TO-CELL TRANSFER AND DISEASE TRANSMISSION” (Bergen Teknologioverforing AS, BTO, priority 2013, published 2015).

System: HeLa-Kyoto cells
Experiment: contact-dependent cell-to-cell DiD organelle transfer, DiD-stained/unstained 1:400 co-culture, 3D confocal quantification
Assay type: cell-based
Conditions: 100 nM, added 2 hours after plating, cells fixed after 18 hours, 1:400 cell ratio
Protocol: HeLa-Kyoto cells were cultured in DMEM:F12 supplemented with 10% fetal calf serum and 1% penicillin/streptomycin (Invitrogen Detection Technologies, Carlsbad, Calif., USA) on 24-well microscopy plates (Greiner Bio-One GmbH). Cells were maintained under humidified air supplemented with 5% CO2 at 37° C. and plated with a density of approximately 35 000 cells/cm^2. After 24 hours, 200 ng (5 μl)/ml lipid analog Vybrant® DiD Cell-Labelling solution (Invitrogen Detection Technologies, Carlsbad, Calif., USA) was added to the plated cells in culture medium, incubated at 37° C. for 20 min wherein tilted 5 times. After the incubation period, the culture medium was exchanged 4 times within 2 hours. […]
Cells were imaged with a Leica confocal SP5 in resonant scanner mode (zoom 1.7; pinhole airyl; 40× 1.25NA oil immersion objective; 512×512 pixel; z-distance 1.01 μm, line-average 16; offset −1; gain 900-1000V. For the DiD-channel laser power was adjusted for each experiment to a strength resulting in approximately half a cell diameter of out-of-detection range data for average donor cells in order to quantify the transferred DiD in the surrounding cells, present in much lower quantities. For all other channels, the laser power was adjusted to few out-of-detection range pixels at the upper end of the scale. […]

C=C1[C@@H](C)[C@H]2[C@H](Cc3ccccc3)NC(=O)[C@]23[C@H](OC(C)=O)/C=C/[C@@](C)(O)C(=O)[C@@H](C)C/C=C/[C@H]3[C@@H]1O [Cytochalasin D]
contact-dependent cell-to-cell DiD transfer (integrated intensity of DiD signal inside acceptor cells) compared to control: substantially inhibited
